This test concerns the target human CXCR3-A receptor (Homo sapiens (Human), UniProt P49682). Put plainly: 125I-CXCL10 competition radioligand binding assay.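 Note: One-hour incubation of membranes with tracer, bound radioligand separated by glass fibre filtration, IC50 derived from four-parameter nonlinear fit of competition curves.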 The following applies: displacement of 125I-CXCL10 from membranes of CHO cells expressing human recombinant CXCR3-A. For orientation: In a radioligand displacement assay an active substance lowers the binding of a labelled ligand.
Sequence of human CXCR3-A receptor (P49682 whole entry): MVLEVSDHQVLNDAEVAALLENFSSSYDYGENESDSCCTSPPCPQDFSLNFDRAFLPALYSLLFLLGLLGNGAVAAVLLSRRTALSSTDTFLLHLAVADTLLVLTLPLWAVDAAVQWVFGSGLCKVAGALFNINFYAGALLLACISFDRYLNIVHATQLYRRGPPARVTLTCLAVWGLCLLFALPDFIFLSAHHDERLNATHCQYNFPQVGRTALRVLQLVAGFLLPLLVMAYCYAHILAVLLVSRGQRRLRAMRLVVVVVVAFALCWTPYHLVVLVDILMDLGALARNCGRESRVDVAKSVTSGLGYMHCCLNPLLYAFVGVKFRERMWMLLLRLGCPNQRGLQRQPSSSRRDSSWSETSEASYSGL
For the molecule `O=C(O)CC(c1ccc(Cl)c(F)c1)N(Cc1ccc(OCCN2C(=O)CCC2=O)c(F)c1)CC1CCCC1` (stereo not drawn) [Example 60, 3-(4-Chloro-3-fluoro-phenyl)-3-(cyclopentylmethyl-{4-[2-(2,5-dioxo-pyrrolidin-1-yl)-ethoxy]-3-fluoro-benzyl}-amino)-propionic acid], the IC50 – broadly, the midpoint of a concentration-inhibition curve – was determined as 243 nM.

For the molecule `O=C(O)CC(c1ccc(Cl)c(F)c1)N(Cc1ccc(OCCN2C(=O)CCC2=O)c(F)c1)CC1CCCCC1` (stereo not drawn) [Example 61, 3-(4-Chloro-3-fluoro-phenyl)-3-(cyclohexylmethyl-{4-[2-(2,5-dioxo-pyrrolidin-1-yl)-ethoxy]-3-fluoro-benzyl}-amino)-propionic acid], the IC50 is 334 nM.

With `CCCN(Cc1ccc(OCCN2C(=O)CCC2=O)c(F)c1)C(CC(=O)O)c1ccc(Cl)c(Cl)c1` (stereo not drawn) [Example 62, 3-(3,4-Dichloro-phenyl)-3-({4-[2-(2,5-dioxo-pyrrolidin-1-yl)-ethoxy]-3-fluoro-benzyl}-propyl-amino)-propionic acid], the IC50 was 503 nM.

As to `CC(C)CN(Cc1ccc(OCCN2C(=O)CCC2=O)c(F)c1)C(CC(=O)O)c1ccc(Cl)c(Cl)c1` (stereo not drawn) [Example 63, 3-(3,4-Dichloro-phenyl)-3-({4-[2-(2,5-dioxo-pyrrolidin-1-yl)-ethoxy]-3-fluoro-benzyl}-isobutyl-amino)-propionic acid], the IC50 was 303 nM.

Regarding `CCCCN(Cc1ccc(OCCN2C(=O)CCC2=O)c(F)c1)C(CC(=O)O)c1ccc(Cl)c(Cl)c1` (stereo not drawn) [Example 64, 3-(Butyl-{4-[2-(2,5-dioxo-pyrrolidin-1-yl)-ethoxy]-3-fluoro-benzyl}-amino)-3-(3,4-dichloro-phenyl)-propionic acid], the concentration for half-maximal inhibition (IC50) was determined as 456 nM.

With `O=C(O)CC(c1ccc(Cl)c(Cl)c1)N(Cc1ccc(OCCN2C(=O)CCC2=O)c(F)c1)CC1CCCC1` (stereo not drawn) [Example 65, 3-(Cyclopentylmethyl-{4-[2-(2,5-dioxo-pyrrolidin-1-yl)-ethoxy]-3-fluoro-benzyl}-amino)-3-(3,4-dichloro-phenyl)-propionic acid], the IC50 stood at 186 nM.

For `Cc1cc(CN(CC2CCC2)[C@@H](CC(=O)O)c2ccc(Cl)cc2)ccc1OCCN1C(=O)CCC1=O` [Example 71, (S)-3-(4-Chloro-phenyl)-3-(cyclobutylmethyl-{4-[2-(2,5-dioxo-pyrrolidin-1-yl)-ethoxy]-3-methyl-benzyl}-amino)-propionic acid], the IC50 stood at 54 nM.

On to `Cc1cc(CN(CC2CC2)C(CC(=O)O)c2ccc(Cl)c(F)c2)ccc1OCCN1C(=O)CCC1=O` (stereo not drawn) [Example 74, 3-(4-Chloro-3-fluoro-phenyl)-3-(cyclopropylmethyl-{4-[2-(2,5-dioxo-pyrrolidin-1-yl)-ethoxy]-3-methyl-benzyl}-amino)-propionic acid], for which the IC50 was found to be 34 nM.

Turning to `CCCN(Cc1ccc(OCCN2C(=O)CCC2=O)c(C)c1)C(CC(=O)O)c1ccc(Cl)c(F)c1` (stereo not drawn) [Example 75, 3-(4-Chloro-3-fluoro-phenyl)-3-({4-[2-(2,5-dioxo-pyrrolidin-1-yl)-ethoxy]-3-methyl-benzyl}-propyl-amino)-propionic acid], the IC50 was determined as 25 nM.

`CCCCN(Cc1ccc(OCCN2C(=O)CCC2=O)c(C)c1)C(CC(=O)O)c1ccc(Cl)c(F)c1` (stereo not drawn) [Example 76, 3-(Butyl-{4-[2-(2,5-dioxo-pyrrolidin-1-yl)-ethoxy]-3-methyl-benzyl}-amino)-3-(4-chloro-3-fluoro-phenyl)-propionic acid]: the IC50 stood at 54 nM.

With `Cc1cc(CN(CC2CCCCC2)C(CC(=O)O)c2ccc(Cl)c(F)c2)ccc1OCCN1C(=O)CCC1=O` (stereo not drawn) [Example 78, 3-(4-Chloro-3-fluoro-phenyl)-3-(cyclohexylmethyl-{4-[2-(2,5-dioxo-pyrrolidin-1-yl)-ethoxy]-3-methyl-benzyl}-amino)-propionic acid], the IC50 came out at 72 nM.

On to `CCCN(Cc1ccc(OCCN2C(=O)CCC2=O)c(C)c1)C(CC(=O)O)c1ccc(Cl)c(Cl)c1` (stereo not drawn) [Example 79, 3-(3,4-Dichloro-phenyl)-3-({4-[2-(2,5-dioxo-pyrrolidin-1-yl)-ethoxy]-3-methyl-benzyl}-propyl-amino)-propionic acid], for which the concentration for half-maximal inhibition (IC50) was 116 nM.

Regarding `CCCCN(Cc1ccc(OCCN2C(=O)CCC2=O)c(C)c1)C(CC(=O)O)c1ccc(Cl)c(Cl)c1` (stereo not drawn) [Example 81, 3-(Butyl-{4-[2-(2,5-dioxo-pyrrolidin-1-yl)-ethoxy]-3-methyl-benzyl}-amino)-3-(3,4-dichloro-phenyl)-propionic acid], the IC50 was determined as 100 nM.

As for `Cc1cc(CN(CC2CCCC2)C(CC(=O)O)c2ccc(Cl)c(Cl)c2)ccc1OCCN1C(=O)CCC1=O` (stereo not drawn) [Example 82, 3-(Cyclopentylmethyl-{4-[2-(2,5-dioxo-pyrrolidin-1-yl)-ethoxy]-3-methyl-benzyl}-amino)-3-(3,4-dichloro-phenyl)-propionic acid], the IC50 came to 119 nM.

As to `Cc1cc(CN(CC2CCCCC2)C(CC(=O)O)c2ccc(Cl)c(Cl)c2)ccc1OCCN1C(=O)CCC1=O` (stereo not drawn) [Example 83, 3-(Cyclohexylmethyl-{4-[2-(2,5-dioxo-pyrrolidin-1-yl)-ethoxy]-3-methyl-benzyl}-amino)-3-(3,4-dichloro-phenyl)-propionic acid], the IC50 was found to be 302 nM.

Consider `CCc1cc(CN(CC2CC2)C(CC(=O)O)c2ccc(Cl)cc2)ccc1OCCN1C(=O)CCC1=O` (stereo not drawn) [Example 84, 3-(4-Chloro-phenyl)-3-(cyclopropylmethyl-{4-[2-(2,5-dioxo-pyrrolidin-1-yl)-ethoxy]-3-ethyl-benzyl}-amino)-propionic acid], for which the concentration for half-maximal inhibition (IC50) came out at 45 nM.

Regarding `CCCN(Cc1ccc(OCCN2C(=O)CCC2=O)c(CC)c1)C(CC(=O)O)c1ccc(Cl)cc1` (stereo not drawn) [Example 85, 3-(4-Chloro-phenyl)-3-({4-[2-(2,5-dioxo-pyrrolidin-1-yl)-ethoxy]-3-ethyl-benzyl}-propyl-amino)-propionic acid], the 50% inhibitory concentration (IC50) came out at 58 nM.

Turning to `CCc1cc(CN(CC(C)C)C(CC(=O)O)c2ccc(Cl)cc2)ccc1OCCN1C(=O)CCC1=O` (stereo not drawn) [Example 86, 3-(4-Chloro-phenyl)-3-({4-[2-(2,5-dioxo-pyrrolidin-1-yl)-ethoxy]-3-ethyl-benzyl}-isobutyl-amino)-propionic acid], the IC50 came to 12 nM.

Turning to `CCCCN(Cc1ccc(OCCN2C(=O)CCC2=O)c(CC)c1)C(CC(=O)O)c1ccc(Cl)cc1` (stereo not drawn) [Example 87, 3-(Butyl-{4-[2-(2,5-dioxo-pyrrolidin-1-yl)-ethoxy]-3-ethyl-benzyl}-amino)-3-(4-chloro-phenyl)-propionic acid], the 50% inhibitory concentration (IC50) is 31 nM.

Take `CCc1cc(CN(CC2CCC2)[C@@H](CC(=O)O)c2ccc(Cl)cc2)ccc1OCCN1C(=O)CCC1=O` [Example 88, (S)-3-(4-Chloro-phenyl)-3-(cyclobutylmethyl-{4-[2-(2,5-dioxo-pyrrolidin-1-yl)-ethoxy]-3-ethyl-benzyl}-amino)-propionic acid]: the half-maximal inhibitory concentration (IC50) was found to be 70 nM.

For `CCc1cc(CN(CC2CCCCC2)C(CC(=O)O)c2ccc(Cl)cc2)ccc1OCCN1C(=O)CCC1=O` (stereo not drawn) [Example 89, 3-(4-Chloro-phenyl)-3-(cyclohexylmethyl-{4-[2-(2,5-dioxo-pyrrolidin-1-yl)-ethoxy]-3-ethyl-benzyl}-amino)-propionic acid], the IC50 turned out to be 51 nM.

With `CCc1cc(CN(CC2CC2)C(CC(=O)O)c2ccc(Cl)c(F)c2)ccc1OCCN1C(=O)CCC1=O` (stereo not drawn) [Example 90, 3-(4-Chloro-3-fluoro-phenyl)-3-(cyclopropylmethyl-{4-[2-(2,5-dioxo-pyrrolidin-1-yl)-ethoxy]-3-ethyl-benzyl}-amino)-propionic acid], the IC50 was 50 nM.

With `CCCN(Cc1ccc(OCCN2C(=O)CCC2=O)c(CC)c1)C(CC(=O)O)c1ccc(Cl)c(F)c1` (stereo not drawn) [Example 91, 3-(4-Chloro-3-fluoro-phenyl)-3-({4-[2-(2,5-dioxo-pyrrolidin-1-yl)-ethoxy]-3-ethyl-benzyl}-propyl-amino)-propionic acid], the IC50 amounted to 56 nM.

In the case of `CCc1cc(CN(CC(C)C)C(CC(=O)O)c2ccc(Cl)c(F)c2)ccc1OCCN1C(=O)CCC1=O` (stereo not drawn) [Example 92, 3-(4-Chloro-3-fluoro-phenyl)-3-({4-[2-(2,5-dioxo-pyrrolidin-1-yl)-ethoxy]-3-ethyl-benzyl}-isobutyl-amino)-propionic acid], the half-inhibitory concentration (IC50) turned out to be 66 nM.

For the molecule `CCCCN(Cc1ccc(OCCN2C(=O)CCC2=O)c(CC)c1)C(CC(=O)O)c1ccc(Cl)c(F)c1` (stereo not drawn) [Example 93, 3-(Butyl-{4-[2-(2,5-dioxo-pyrrolidin-1-yl)-ethoxy]-3-ethyl-benzyl}-amino)-3-(4-chloro-3-fluoro-phenyl)-propionic acid], the IC50 is 79 nM.

Consider `CCc1cc(CN(CC2CCCC2)C(CC(=O)O)c2ccc(Cl)c(F)c2)ccc1OCCN1C(=O)CCC1=O` (stereo not drawn) [Example 94, 3-(4-Chloro-3-fluoro-phenyl)-3-(cyclopentylmethyl-{4-[2-(2,5-dioxo-pyrrolidin-1-yl)-ethoxy]-3-ethyl-benzyl}-amino)-propionic acid], for which the concentration for half-maximal inhibition (IC50) turned out to be 71 nM.

As to `CCc1cc(CN(CC2CCCCC2)C(CC(=O)O)c2ccc(Cl)c(F)c2)ccc1OCCN1C(=O)CCC1=O` (stereo not drawn) [Example 95, 3-(4-Chloro-3-fluoro-phenyl)-3-(cyclohexylmethyl-{4-[2-(2,5-dioxo-pyrrolidin-1-yl)-ethoxy]-3-ethyl-benzyl}-amino)-propionic acid], the IC50 stood at 144 nM.

`CCc1cc(CN(CC2CC2)C(CC(=O)O)c2ccc(Cl)c(Cl)c2)ccc1OCCN1C(=O)CCC1=O` (stereo not drawn) [Example 96, 3-(Cyclopropylmethyl-{4-[2-(2,5-dioxo-pyrrolidin-1-yl)-ethoxy]-3-ethyl-benzyl}-amino)-3-(3,4-dichloro-phenyl)-propionic acid]: the IC50 is 78 nM.

Regarding `CCc1cc(CN(CC(C)C)C(CC(=O)O)c2ccc(Cl)c(Cl)c2)ccc1OCCN1C(=O)CCC1=O` (stereo not drawn) [Example 98, 3-(3,4-Dichloro-phenyl)-3-({4-[2-(2,5-dioxo-pyrrolidin-1-yl)-ethoxy]-3-ethyl-benzyl}-isobutyl-amino)-propionic acid], the IC50 came out at 130 nM.

For `CCCCN(Cc1ccc(OCCN2C(=O)CCC2=O)c(CC)c1)C(CC(=O)O)c1ccc(Cl)c(Cl)c1` (stereo not drawn) [Example 99, 3-(Butyl-{4-[2-(2,5-dioxo-pyrrolidin-1-yl)-ethoxy]-3-ethyl-benzyl}-amino)-3-(3,4-dichloro-phenyl)-propionic acid], the IC50 stood at 120 nM.

For the origin of these results see patent US9447038B2 (SANOFI, priority 2012, dated 2016).
